The record followed here is US20060083691A1, “Intranasal opioid compositions, delivery devices and methods of using same” (priority 2000, published 2006).

Common to all, as to type: in vivo, human
Data set [1] in a line: Pharmacokinetics and bioequivalence of butorphanol formulation, unit-dose vs multi-dose delivery device. As to conditions: 2 mg intranasal. The method, then:
The experiments described in this example compared bioavailability and other parameters of a butorphanol formulation when administered using a unit-dose or multi-dose delivery device. The butorphanol formulation used for this example (STADOL NS®) contained 10 mg butorphanol tartrate, 6.5 mg sodium chloride, 1.0 mg citric acid, 0.20 mg benzethonium chloride in purified water with 1.2 mg sodium hydroxide and hydrochloric acid added to adjust the pH to 5.0.
The multi-dose sprayer purported by its label to administer 0.1 ml of liquid composition by metering upon activation by the user. The unit-dose spray device was a disposable intranasal applicator that is commercially available from Pfeiffer of America under the designation “Unitdose Second Generation.” Each of the Pfeiffer spray applicators was charged with sufficient liquid to deliver a 0.1 ml dose of the butorphanol formulation. The associated glass containers were filled using a pipette under clean conditions, sealed and assembled to the applicator. Each of the applicators was weighed prior to use and after use. Qualified medical personnel administered one dose into each nostril, after which the applicator was recovered for weighing. In the case of the unit-dose applicators, two devices were used for each patient for a total of 2 mg butorphanol tartrate.
Pharmacokinetics and bioequivalence (intrasubject variabilitiy) of the above-described butorphanol formulation upon administration using either the multi-dose or unit dose delivery device was assessed. The study was initiated with 16 subjects, 15 of which completed the study to provide data for this analysis; one subject dropped out after the second period. The following analysis considers both raw and normalized data, with the latter standardized with respect to the dose dispensed.
For both the raw and normalized data, log transformations are applied to the pharmacokinetic endpoints Cmax, AUC(last), and AUC(inf). A mixed effects model was considered for each parameter. Fixed effects for the factors sequence (4 levels), period 3 levels) and device (2 levels) were included in the model. Additionally, gender, as well as the interactions between gender and each of sequence, period and device was included as a factor in each model to determine whether separate analyses would be necessary for males and females. A total of seven models were considered: Tmax, log of raw Cmax values, log of normalized Cmax values, log transformed values for raw and normalized AUC(last), and log values for raw and normalized AUC(inf). […] In addition, the lack of significance of the effects included in each model indicate that there was no evidence of unequal carryover between the two delivery devices. […]

Data set [2] can be described thus: Pharmacokinetics of single doses of intranasal butorphanol tartrate, three-way crossover study. As to conditions: for F(%): relative to 2 mg i.v. On the procedure:
Pharmacokinetic parameters of single doses of intranasal butorphanol tartrate using a single-dose, metered sprayer were evaluated in a 24 subject, three-way crossover study. The intranasal formulation contained aqueous buffered solution (pH 5) having 0.2% sodium citrate and 0.2% citric acid and 1 mg of butorphanol tartrate per ml. […] Each volunteer received three treatments: (1) 2 mg of i.v. butorphanol, (2) 2 mg of intranasal butorphanol, and (3) 1 mg of intranasal butorphanol. Each treatment was separated by a 6 day washout period.

Data set [3] can be described thus: Pharmacokinetics of single or multiple doses of intranasal butorphanol tartrate, two-way crossover study. On the procedure:
Pharmacokinetic parameters of single doses or multi doses of intranasal butorphanol tartrate using a single-dose, metered sprayer were evaluated in a 12 subject, two-way crossover study. The butorphanol formulation used was as described in Example 2. Each volunteer received either 1 or 2 mg of intranasal butorphanol as a single does (Treatment A) and 1 or 2 mg of intranasal butorphanol every six hours for seven doses (Treatment B). The butorphaonol composition was substantially as described in Example 2. During phase 1, 12 subjects received a single 1 mg dose. During phase 2, those who received the 1 mg single dose received 1 mg every six hours for seven doses. During phase 3, those who received the 2 mg single dose received 2 mg every six hours for seven doses. Serial blood samples were collected over 12 hours. Pharmacokinetic parameters are show in Table 5.

[4] abbreviates: Multiple Dose 1 mg q 6 hr intranasal.
Where [5] appears, read: Multiple Dose 2 mg q 6 hr intranasal.

Turning to `O=C(O)C(O)C(O)C(=O)O.Oc1ccc2c(c1)[C@@]13CCCC[C@@]1(O)[C@@H](C2)N(CC1CCC1)CC3` [butorphanol tartrate], the “AUC0-t” value in data set [1] (STADOL NS multi-dose device) was “about 9329 pg*hr/ml”; in data set [2] (1 mg intranasal), 4.88 ± 1.5 ng·h/mL; in data set [2] (2 mg i.v.) it was 12.59 ± 2.3 ng·h/mL; in data set [2] (2 mg intranasal), 9.51 ± 1.9 ng·h/mL; in data set [3] (setting [4]) it was 7.21 ng·h/mL; in data set [3] (setting [5]), 15.75 ng·h/mL. Moreover, the AUC0-t turned out to be 3.80 ng·h/mL in data set [3] (Single Dose 1 mg intranasal) and 9.55 ng·h/mL in data set [3] (Single Dose 2 mg intranasal). Further, the Cmax (usually the peak of the concentration-time curve) in data set [1] (STADOL NS multi-dose device) is “about 4027 pg/ml”; in data set [2] (1 mg intranasal), 1.67 ± 0.7 ng/mL; in data set [2] (2 mg i.v.), 10.32 ± 2.7 ng/mL; in data set [2] (2 mg intranasal), 3.38 ± 1.3 ng/mL; in data set [3] (setting [4]), 1.55 ng/mL; in data set [3] (setting [5]), 3.80 ng/mL. Moreover, the Cmax was 1.46 ng/mL in data set [3] (Single Dose 1 mg intranasal) and 4.13 ng/mL in data set [3] (Single Dose 2 mg intranasal). In addition, in data set [1] (STADOL NS multi-dose device), the Tmax result is “about 0.245 hr”. In data set [1] (unit-dose device), the AUC result was “about 10661 pg*hr/ml”. Moreover, the figures for the “F(%)” value in data set [2] (1 mg intranasal) and in data set [2] (2 mg intranasal) were 80.2 ± 29.1% and 77.6 ± 18.3%, respectively. Further, the Tmax range result in data set [3] (setting [4]) is on record as “(0.25-3.0)”; in data set [3] (setting [5]) it was “(0.25-0.75)”; in data set [3] (Single Dose 1 mg intranasal) it was “(0.17-1.02)”; in data set [3] (Single Dose 2 mg intranasal) it was “(0.167-0.5)”.
